Laboratory results as given in patent US12090141B2, “Use of clemizole compounds for treatment of inflammatory conditions” (priority 2015, dated 2024).

Columns and labels:
NASH mice [1] = experiment: Whole blood glucose and plasma ALT in NASH mice; type: in vivo, C57BL/6 mice; details: for Whole blood glucose levels vs Vehicle group: during the study period, non-fasting; for Plasma ALT (mean ± SD): time of sacrifice, n = 6
Procedure: Non-fasting blood was collected in polypropylene tubes with anticoagulant (Novo-heparin, Mochida Pharmaceutical, Japan) from submandibular bleeding at 6 (before dosing), 7 and 8 weeks of age. The collected blood samples were centrifuged and the supernatant were collected as heparinized plasma.
Non-fasting blood glucose in whole blood was measured using LIFE CHECK (EIDIA Co. Ltd., Japan). Plasma ALT was measured by FUJI DRI-CHEM 7000 (Fujifilm Corporation, Japan).

NASH mice [2] = experiment: Body weight and liver weight in NASH mice (sacrifice 9 wk); details: for Mean body weight on the day of sacrifice vs Vehicle group / Mean liver weight on the day of sacrifice vs Vehicle group / Mean liver-to-body weight ratio on the day of sacrifice vs Vehicle group: 9 wk; for Body weight (mean ± SD): day of sacrifice 9 wk, n = 6, oral from 6 wks, A-C 258 then 129 mg/kg once daily, D 89 mg/kg twice daily; for Liver weight (mean ± SD) / Liver-to-body weight ratio (mean ± SD): sacrifice 9 wk, n = 6
Procedure: (§1) NASH was induced in 55 male mice by a single subcutaneous injection of 200 μg streptozotocin (STZ, Sigma-Aldrich, USA) solution 2 days after birth and feeding with high fat diet (HFD, 57 kcal % fat, cat #: HFD32, CLEA Japan, Inc., Japan) after 4 weeks of age. Mice that had been induced have NASH by this method are referred to below as NASH mice.
(§2) Compound D was orally administered at doses of 89 mg/kg twice daily.
C57BL/6 mice (14-day-pregnant female) were obtained from Japan SLC, Inc. (Shizuoka, Japan). All animals used in the study were housed and cared for in accordance with the Japanese Pharmacological Society Guidelines for Animal Use.

NASH mice [3] = experiment: NAFLD activity score, HE staining of liver sections of NASH mice; type: in vivo, C57BL/6 mice; details: for NAS (mean ± SD): n = 6, NAFLD activity score by Kleiner criteria; for Steatosis score 0, number of mice: n = 6, score 0 = <5%; for Steatosis score 1, number of mice: n = 6, score 1 = 5-33%; for Hepatocyte ballooning score 1, number of mice: n = 6, score 1 = Few Balloon cells; for Lobular inflammation score 2, number of mice: n = 6, score 2 = 2-4 foci/200x; for Hepatocyte ballooning score 2, number of mice: n = 6, score 2 = Many cells/prominent ballooning; for Lobular inflammation score 3, number of mice: n = 6, score 3 = >4 foci/200x; for Lobular inflammation score 1, number of mice: n = 6, score 1 = <2 foci/200x
Procedure: as §1, §2
(§3) For HE staining, sections were cut from paraffin blocks of liver tissue prefixed in Bouin's solution and stained with Lillie-Mayer's Hematoxylin (Muto Pure Chemicals Co., Ltd., Japan) and eosin solution (Wako Pure Chemical Industries). NAFLD Activity score (NAS) was calculated according to the criteria of Kleiner (Kleiner D E. et al., Hepatology, 2005; 41:1313). To visualize collagen deposition, Bouin's fixed liver sections were stained using picro-Sirius red solution (Waldeck, Germany).
Definition of NAS Components

mice with HCC = experiment: Macroscopic analysis of liver tumor nodules in mice with HCC; type: in vivo, C57BL/6 mice; details: for Maximum diameter of nodules (mean ± SD) / Number of nodules (mean ± SD): macroscopically visible tumor nodules on liver surface, n = 1-3
Procedure: The number of macroscopically visible tumor nodules formed on the liver surface was measured. The maximum diameter of macroscopically visible tumor nodules formed on the liver surface was measured.

NASH mice [4] = experiment: Liver fibrosis area, Sirius red staining in NASH mice; type: in vivo, C57BL/6 mice; details: for Sirius red-positive area (mean ± SD): liver fibrosis area, n = 6
Procedure: as §3
For quantitative analysis of fibrosis areas bright field images of Sirius red-stained sections were captured around the central vein for livers using a digital camera (DFC280; Leica, Germany) at 200-fold magnification, and the positive areas in 5 fields/section were measured using ImageJ software (National Institute of Health, USA).

NASH induced HCC mice = experiment: Body weight and liver weight in NASH induced HCC mice (sacrifice 18 wk); type: in vivo; details: for Body weight (mean ± SD) / Liver weight (mean ± SD) / Liver-to-body weight ratio (mean ± SD): NASH induced HCC mice, 18 wk, n = 1-3
Excerpt: Table 1 below summarizes the treatment schedule.

CYP3A4 = CYP3A4 (Homo sapiens, UniProt P08684); experiment: Clemizole metabolism by CYP450 enzymes in vitro; type: in vitro ADME
CYP3A4, sequence (P08684 whole entry): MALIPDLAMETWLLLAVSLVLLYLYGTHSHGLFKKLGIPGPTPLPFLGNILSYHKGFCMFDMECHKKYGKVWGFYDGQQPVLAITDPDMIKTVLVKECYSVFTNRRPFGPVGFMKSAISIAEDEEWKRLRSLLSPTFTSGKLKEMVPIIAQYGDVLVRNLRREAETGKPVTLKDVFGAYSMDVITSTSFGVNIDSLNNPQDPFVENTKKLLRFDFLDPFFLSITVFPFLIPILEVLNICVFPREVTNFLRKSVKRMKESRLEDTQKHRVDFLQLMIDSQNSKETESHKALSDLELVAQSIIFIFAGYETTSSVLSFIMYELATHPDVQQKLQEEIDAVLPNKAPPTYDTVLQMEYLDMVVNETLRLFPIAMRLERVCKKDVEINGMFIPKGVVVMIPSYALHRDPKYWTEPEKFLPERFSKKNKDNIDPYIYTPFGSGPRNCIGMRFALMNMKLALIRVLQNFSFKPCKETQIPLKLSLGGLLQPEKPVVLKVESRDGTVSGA

[5] = test system: hepatocellular carcinoma (HCC); experiment: Phase IIa open label pilot study of clemizole in subjects with hepatocellular carcinoma; type: in vivo, human
Procedure: The completed study treats up to 40 patients. Initial clinical results from two patients with hepatocellular carcinoma who were administered 200 mg clemizole for 3 or 5 months are described below.

HCC [6] = details: phase 2 study, cited from earlier work
HCC [7] = details: phase 3 study, cited from earlier work
[8] = treatment period, 4 mice per group

| SMILES | Whole blood glucose levels vs Vehicle group (NASH mice [1]) | Plasma ALT (mean ± SD) (NASH mice [1]) [U/L] | Mean body weight on the day of sacrifice vs Vehicle group (NASH mice [2]) | Mean liver weight on the day of sacrifice vs Vehicle group (NASH mice [2]) | Mean liver-to-body weight ratio on the day of sacrifice vs Vehicle group (NASH mice [2]) | Body weight (mean ± SD) (NASH mice [2]) [g] | Liver weight (mean ± SD) (NASH mice [2]) [mg] | Liver-to-body weight ratio (mean ± SD) (NASH mice [2]) [%] | NAS (mean ± SD) (NASH mice [3]) | Steatosis score 0, number of mice (NASH mice [3]) | Steatosis score 1, number of mice (NASH mice [3]) | Lobular inflammation score 2, number of mice (NASH mice [3]) | Hepatocyte ballooning score 2, number of mice (NASH mice [3]) | Lobular inflammation score 3, number of mice (NASH mice [3]) | Maximum diameter of nodules (mean ± SD) (mice with HCC; 18 wk) [mm] | Number of nodules (mean ± SD) (mice with HCC; 18 wk) | Fibrosis area at the time of sacrifice vs Vehicle group (NASH mice [4]) | Sirius red-positive area (mean ± SD) (NASH mice [4]) [%] | Liver weight (mean ± SD) (NASH induced HCC mice) [mg] | Liver-to-body weight ratio (mean ± SD) (NASH induced HCC mice) [%] | other results |
| --- | --- | --- | --- | --- | --- | --- | --- | --- | --- | --- | --- | --- | --- | --- | --- | --- | --- | --- | --- | --- | --- |
| CCN(CC)CCCC(C)Nc1ccnc2cc(Cl)ccc12 (stereo not drawn) [Compound A, Recemic mixture of R-chloroquine and S-chloroquine] | no significant differences | 21 ± 13 | no significant differences | no significant differences | no significant differences | 15.0 ± 1.9 | 1045 ± 243 | 7.0 ± 1.4 | 5.2 ± 0.8 | 1 | 5 | 1 | 3 | 5 | 6.1 ± 0.0 | 2.0 ± 0.0 | no significant differences | 0.87 ± 0.23 | 1443 ± 0 | 8.2 ± 0.0 | Hepatocyte ballooning score 1, number of mice (NASH mice [3]): 3; Body weight (mean ± SD) (NASH induced HCC mice): 17.5 ± 0.0 g; Mice died before reaching week 18 (NASH induced HCC mice; [8]): Three out of 4 |
| CCN(CC)CCC[C@@H](C)Nc1ccnc2cc(Cl)ccc12 [Compound B, R-chloroquine] | no significant differences | 14 ± 6 | no significant differences | no significant differences | no significant differences | 14.5 ± 2.4 | 934 ± 135 | 6.5 ± 0.4 | 4.3 ± 0.5 | 1 | 5 | 4 | 5 | – | 11.1 ± 7.0 | 2.0 ± 1.4 | no significant differences | 0.78 ± 0.35 | 1616 ± 635 | 7.9 ± 3.0 | NAS compared with the Vehicle group (NASH mice [3]): significant reduction; Lobular inflammation score 1, number of mice (NASH mice [3]): 2; Hepatocyte ballooning score 1, number of mice (NASH mice [3]): 1; Body weight (mean ± SD) (NASH induced HCC mice): 20.4 ± 0.3 g; Mice died before reaching week 18 (NASH induced HCC mice; [8]): Two out of 4 |
| CCN(CC)CCC[C@H](C)Nc1ccnc2cc(Cl)ccc12 [Compound C, S-chloroquine] | no significant differences | 9 ± 3 | significantly decreased | significantly decreased | no significant differences | 13.7 ± 1.3 | 810 ± 77 | 5.9 ± 0.4 | 5.3 ± 0.5 | – | 6 | 4 | 6 | 2 | 3.5 ± 5.0 | 1.5 ± 2.1 | no significant differences | 0.90 ± 0.44 | 1353 ± 178 | 7.6 ± 0.1 | Body weight (mean ± SD) (NASH induced HCC mice): 17.9 ± 2.8 g; Mice died before reaching week 18 (NASH induced HCC mice; [8]): Two out of 4 |
| Clc1ccc(Cn2c(CN3CCCC3)nc3ccccc32)cc1 [Compound D, clemizole] | no significant differences | 18 ± 10 | no significant differences | no significant differences | no significant differences | – | 1047 ± 76 | 6.8 ± 0.4 | 4.3 ± 1.0 | 1 | 5 | 1 | 6 | 1 | 0.7 ± 1.2 | 0.3 ± 0.6 | no significant differences | 0.95 ± 0.39 | 1710 ± 113 | 6.3 ± 0.8 | Role of CYP3A4 in clemizole biotransformation in human liver (CYP3A4): mediates the majority of this drug biotransformation reaction; NAS compared with the Vehicle group (NASH mice [3]): significant reduction; Lobular inflammation score 1, number of mice (NASH mice [3]): 4; Survived mice with absence of visible tumor nodules on the liver surface (mice with HCC; 18 wk): 2 out of 3; Tumor formation in mouse livers (FIG. 8, representative images) (mice with HCC; mouse, in vivo): inhibition of tumor formation; Mice died before reaching week 18 (NASH induced HCC mice; male, C57BL/6, mouse, in vivo): one out of 4; HCC status on follow up dynamic liver CT imaging ([5]; Patient #1, 200 mg clemizole orally thrice daily, after 3 months): the HCC remained stable; Tolerability (complaints or side effects) ([5]; Patient #1, 200 mg thrice daily, after 3 months): no complaints or side effects; HCC status on follow up dynamic liver magnetic resonance imaging ([5]; Patient #2, 200 mg clemizole orally thrice daily, after 5 months): the HCC remained stable; Tolerability (complaints or side effects) ([5]; Patient #2, 200 mg thrice daily, after 5 months): no complaints or side effects |
| CNC(=O)c1cc(Oc2ccc(NC(=O)Nc3ccc(Cl)c(C(F)(F)F)c3)cc2)ccn1 [sorafenib] | – | – | – | – | – | – | – | – | – | – | – | – | – | – | – | – | – | – | – | – | Toxicity: diarrhea (HCC [6]; all grades): over 40%; Toxicity: fatigue (HCC [6]; all grades): 30%; Toxicity: hand-foot skin reaction (HCC [6]; all grades): over 30%; Grade 3/4 drug-related toxicity: diarrhea (HCC [6]): 8.0%; Grade 3/4 drug-related toxicity: fatigue (HCC [6]): 9.5%; Grade 3/4 drug-related toxicity: hand-foot skin reaction (HCC [6]): 5.1%; Median time to progression (TTP) (HCC [6]): 4.2 months; Hypophosphatemia (HCC [7]; grade 3): 11%; Thrombocytopenia (HCC [7]; grade 3 or 4): 4%; Median time to radiologic progression (HCC [7]): 5.5 months; Overall incidence of treatment-related adverse events (HCC [7]): 80% |
